Measured values from PubChem BioAssay (NCI).
“And” between values parts separate entries of the source, which are not always exact repeats. Equal values may be shown once.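 Grown in 96-well plates, cells were treated for 48 hours with each compound at five concentrations. Insufficient inhibition: endpoint recorded as highest concentration tested. The concentration for 50% growth inhibition is given as GI50. The concentration for full growth arrest is given as TGI.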

Tests used:
Assay in all cases: NCI-60 cell line screen, 48 h
HCT-116 colon = tested on: HCT-116 colon
SF-539 CNS = tested on: SF-539 CNS
OVCAR-3 ovarian = tested on: OVCAR-3 ovarian
IGROV1 ovarian = tested on: IGROV1 ovarian
CAKI-1 renal = tested on: CAKI-1 renal
M14 melanoma = tested on: M14 melanoma
SK-MEL-5 melanoma = tested on: SK-MEL-5 melanoma
NCI-H23 lung = tested on: NCI-H23 lung
HCT-15 colon = tested on: HCT-15 colon
HOP-62 NSCLC = tested on: HOP-62 NSCLC

| Structure (SMILES) | GI50 (HCT-116 colon) | TGI (HCT-116 colon) | GI50 (SF-539 CNS) | TGI (SF-539 CNS) | GI50 (OVCAR-3 ovarian) | TGI (OVCAR-3 ovarian) | GI50 (IGROV1 ovarian) | TGI (IGROV1 ovarian) | GI50 (CAKI-1 renal) | TGI (CAKI-1 renal) | GI50 (M14 melanoma) | TGI (M14 melanoma) | GI50 (SK-MEL-5 melanoma) | TGI (SK-MEL-5 melanoma) | GI50 (NCI-H23 lung) | TGI (NCI-H23 lung) | GI50 (HCT-15 colon) | TGI (HCT-15 colon) | GI50 (HOP-62 NSCLC) | TGI (HOP-62 NSCLC) |
| --- | --- | --- | --- | --- | --- | --- | --- | --- | --- | --- | --- | --- | --- | --- | --- | --- | --- | --- | --- | --- |
| CS(=O)(=O)Nc1cccc(-c2cc(-c3ccccc3Cl)c(C#N)c(N)n2)c1 | 0.448 µM | 11.8 µM | 0.361 µM | 2.72 µM | 0.298 µM | 2.8 µM | 0.769 µM | 22.6 µM | 0.502 µM | 24.4 µM | 0.464 µM | 14.6 µM | 0.448 µM | 13.6 µM | 0.651 µM | 19.5 µM | 0.402 µM | 15.8 µM | 0.558 µM | 16.6 µM |
| O=S(=O)(SCc1ccccc1)C(c1ccccc1)c1ccccc1 |  | > 100 µM |  | 43.1 µM |  | > 100 µM |  | > 100 µM |  | 93.8 µM |  | 59.7 µM |  | 51.8 µM |  | 77.6 µM |  | > 100 µM |  | > 100 µM |
| COc1ccc(C[C@@H]2NC[C@@H](O)[C@@H]2OC(C)=O)cc1 | 2.92 µM |  | 9.48 µM | > 100 µM | 5.34 µM |  | 0.367 µM | 8.14 µM | 30.3 µM |  | 11.8 µM |  | 0.456 µM |  | 2.76 µM |  |  | 0.19 µM | 19.3 µM |  |
| Cc1ccc(NC(=O)C(=O)CC(=O)C2CCOC2=O)c(C)c1 (configuration not stated) |  | > 100 µM |  | > 100 µM |  | > 100 µM |  | > 100 µM |  | > 100 µM |  | > 100 µM |  | > 100 µM |  | > 100 µM |  | > 100 µM |  | > 100 µM |
| CCn1cc(-c2ccnc3[nH]ccc23)c(-c2cccc(NC(=O)Nc3ccc(OCc4ccccc4)cc3)c2)n1 | 12.1 µM | > 25 µM | 12.9 µM | > 25 µM | 6.24 µM | 19.6 µM | 18.1 µM | > 25 µM | 6.71 µM | > 25 µM | 14.4 µM | > 25 µM | 13.5 µM | > 25 µM | 16.5 µM | > 25 µM | 6.28 µM | > 25 µM | > 14.9 µM | > 25 µM |
| CC1=C(C(=O)NCc2ccccc2)C(c2ccc([N+](=O)[O-])cc2)C(C(=O)NCc2ccccc2)=C(C)N1 |  | 60.6 µM |  | > 100 µM |  | > 100 µM |  | > 100 µM |  | > 100 µM |  | 48.5 µM |  | > 100 µM |  | > 100 µM |  | > 100 µM |  | > 100 µM |
| CN1C(=O)[C@@H](NC(=O)[C@H](CCC(F)(F)F)[C@H](CCC(F)(F)F)C(N)=O)N=C(c2ccccc2)c2ccccc21 | 56.7 µM | > 100 µM | 50.3 µM | > 100 µM | > 100 µM | > 100 µM | > 100 µM | > 100 µM | > 100 µM | > 100 µM | 50.9 µM | > 100 µM | 36.1 µM | > 100 µM | > 100 µM | > 100 µM | 89.5 µM | > 100 µM | > 100 µM | > 100 µM |
| S=C(Nc1ccc(Cl)cc1)Nc1ccc(-c2nc3ccccc3o2)cc1 | 13.6 µM | 26.4 µM | 19.2 µM | 41.8 µM | 13.6 µM | 44.7 µM | 10.9 µM | 37.4 µM | 12.3 µM | 39.8 µM | 23.2 µM | 52.9 µM | 14 µM | 32.2 µM | 17.7 µM | 41.8 µM | 10.9 µM | 25.7 µM | 26 µM | 57.4 µM |
| COc1cc2c(cc1OC)C(OC)N(C)c1c-2ccc2cc3c(cc12)OCO3 (configuration not stated) |  | 7.63 µM |  | 4.69 µM |  | 5.68 µM |  | 3.02 µM |  | 33 µM |  | 25.6 µM |  | 6.76 µM |  | 6.49 µM |  | > 75 µM |  | 7.4 µM |
| Nc1ncnc2c1c(-c1cccc(OCc3ccccc3)c1)cn2C1CC(CN2CCC2)C1 (configuration not stated) | 1.85 µM and 2.58 µM | 11.5 µM and > 10 µM | 1.65 µM and 1.95 µM | 3.18 µM and 5.16 µM | 6.26 µM and 7.96 µM | 19.3 µM and > 10 µM | 3.32 µM and 4.84 µM | 12.2 µM and > 10 µM | 2.56 µM and 2.44 µM | 11.4 µM and > 10 µM | 1.59 µM and 1.65 µM | 3.28 µM and 3.55 µM | 1.31 µM and 1.42 µM | 2.67 µM and 2.8 µM | 4.62 µM and 7.36 µM | 21.1 µM and > 10 µM | 1.93 µM and 2.39 µM | 12.6 µM and > 10 µM | 1.88 µM and 3.79 µM | 8.33 µM and > 10 µM |
| O=c1c(O)cccc2cc(O)c(O)c(O)c12 | 7.67 µM | > 100 µM | 5.01 µM | > 100 µM | 6.57 µM | 32.3 µM | 5.06 µM | 27 µM | 14.3 µM | > 100 µM | 30.6 µM | > 100 µM | > 100 µM | > 100 µM | 8.89 µM | > 100 µM | 39.1 µM | > 100 µM | > 100 µM | > 100 µM |
| COc1ccc(C(=O)C(c2ccc(OC)cc2)C2OC(=O)C(Cl)=C2Cl)cc1 (configuration not stated) |  | > 100 µM |  | > 100 µM |  | > 100 µM |  | > 100 µM |  | > 100 µM |  | > 100 µM |  | > 100 µM |  | > 100 µM |  | > 100 µM |  | > 100 µM |
| COC(=O)c1c(O)c([N+](=O)[O-])cc2c1c1c(n2Cc2ccccc2)C(=O)c2ccccc2C1=O | 4.06 µM | 17.5 µM | 18.3 µM | 55.3 µM | 11.5 µM | 69.7 µM | 35.1 µM | > 100 µM | 38.2 µM | > 100 µM | 10.6 µM | 24.1 µM | 3.63 µM | 14.7 µM | 21.9 µM | 84.4 µM | 34.6 µM | > 100 µM | 21.3 µM | 49.8 µM |
| CN(C)c1ncc(-c2ccc(C(F)(F)F)cc2)c(NC2CCCCCC2)n1 | 10.4 µM | 53.4 µM | 21.7 µM | 55.2 µM | 16.3 µM | 33.3 µM | 32.5 µM | > 100 µM | 23.1 µM | > 100 µM | 24 µM | > 100 µM | 14 µM | 28.3 µM | 17.3 µM | 57.3 µM | 17.1 µM | 48.8 µM | 24.5 µM | 61 µM |
| O=C(Cc1nc2ccccc2s1)C(=O)Nc1cccc(Cl)c1 |  | > 100 µM |  | > 100 µM |  | > 100 µM |  | > 100 µM |  | > 100 µM |  | > 100 µM |  | > 100 µM |  | > 100 µM |  | > 100 µM |  | > 100 µM |
